Assay results reported in patent US20220041627A1, “PRODRUGS OF ANTI-CANCER AND ANTI-AUTOIMMUNE DISEASES THERAPEUTIC AGENTS, AND METHODS OF MAKING AND USE THEREOF” (UNIVERSITY OF MARYLAND, BALTIMORE, priority 2018, published 2022).
Read-outs that look alike come from different tables or passages of the source.

What was measured:
[1] = tested on: CAKI-1; assay: NCI-60 growth inhibition, CAKI-1; assay type: cell-based, human
Text: (§1) The anticancer effects of compounds 1a-1b against 60 human cancer cell lines (the Developmental Therapeutics Program of NCI) were studied. The cell lines were derived from different cancer types including leukemia, non-small-cell lung cancer, colon cancer, CNS cancer, melanoma, ovarian cancer, renal cancer, prostate cancer, and breast cancer (Table 1; the assay protocol can be found at: https://dtp.cancer.gov/default.htm). Compound 1a caused over 50% growth inhibition for most tested cell lines. […] Without wishing to be bound by any particular theory, it is believed that the differences in the anticancer effects between compounds 1a and 1b may be due to the more favorable cell membrane permeability of the boronic ester 1a.

[2] = tested on: NCI/ADR-RES; assay: NCI-60 growth inhibition, NCI/ADR-RES; assay type: cell-based, human; details: Ovarian Cancer NCI/ADR-RES, 48 h
Text: as §1

[3] = tested on: A498; assay: NCI-60 growth inhibition, A498; assay type: cell-based, human
Text: as §1

[4] = tested on: HOP-92; assay: NCI-60 growth inhibition, HOP-92; assay type: cell-based, human
Text: as §1

[5] = tested on: HS 578T; assay: NCI-60 growth inhibition, HS 578T; assay type: cell-based, human; details: Breast Cancer HS 578T, 48 h
Text: as §1

[6] = tested on: EKVX; assay: NCI-60 growth inhibition, EKVX; assay type: cell-based, human; details: Non-Small Cell lung Cancer EKVX, 48 h
Text: as §1

[7] = tested on: SR; assay: NCI-60 growth inhibition, SR; assay type: cell-based, human; details: Leukemia SR, 48 h
Text: as §1

[8] = tested on: caspase 3; assay: Western blot of caspase 3 in MCF7 cells; assay type: cell-based, human; details: 48 h; for expression level of caspase 3: compared to vehicle-treated cells; for level of cleavage of caspase 3: compared to vehicle-treated controls
Experimental: (§2) FIGS. 4A and 4B illustrate the effect of compounds 1a-1b in apoptosis. FIG. 4A: immunofluorescence of DNA cleavage protein γH2Ax was enhanced by using 5-FU and prodrugs 1a-1b. FIG. 4B: immunoblot analysis of MCF-7 cells treated with 5-FU, prodrugs 1a-1b for apoptosis markers PARP1 and Caspase 3. The cells were treated for 48 h with the indicated concentrations of compounds.
(§3) Western Blot Analysis. Treated cells were washed once with PBS and lysed with RIPA lysis buffer (Santa Cruz Biotechnology, SCBT, #24948) supplemented with sodium orthovanadate, PMSF, protease and phosphatase inhibitor cocktails (Sigma Aldrich). Cell lysates were centrifuge for 15 min at 14,000×g and the supernatant was used for immunoblotting. Protein concentration was normalized for the samples and resolved on a 10-13% SDS-PAGE gel. Following transfer to nitrocellulose membrane, specific mouse primary antibodies from SCBT (PARP1 #sc-8007, caspase 3 #sc-7272) and Cell Signaling (cleaved PARP1 #9541, cleaved caspase-3 #9664) were added and incubated overnight. Secondary antibodies corresponding to the host of the primary antibodies was further incubated with the membrane and washed three times to remove excess antibodies. Odyssey Fc Imaging System (LI-COR, Lincoln, Nebr.) was used to quantify the chemiluminescent of the proteins.
(§4) To understand the mechanism of action of prodrugs 1a-1b, the impact of the treatment of compounds 1a-1b on the γH2AX formation in MCF7 cells were determined using immunofluorescence assay (FIG. 4A). […] The effects of prodrugs 1a-1b on the PARP1 and caspase 3 cleavage in MCF7 cells were also determined using Western blots assays (FIG. 4B). […] Treatment of 5-FU and compounds 1a-1b increased the levels of cleavage of PARP1 and caspase 3 in MCF7 cells, as compared with that in the vehicle-treated controls. Therefore, prodrugs 1a-1b, similar to 5-FU, can induce MCF7 cell apoptosis, which might contribute to their pharmacological actions.

[9] = tested on: A549/ATCC; assay: NCI-60 growth inhibition, A549/ATCC; assay type: cell-based, human; details: Non-Small Cell lung Cancer A549/ATCC, 48 h
Text: as §1

[10] = tested on: NCI-H226; assay: NCI-60 growth inhibition, NCI-H226; assay type: cell-based, human
Text: as §1

[11] = tested on: COLO 205; assay: NCI-60 growth inhibition, COLO 205; assay type: cell-based, human
Text: as §1

[12] = tested on: SF-539; assay: NCI-60 growth inhibition, SF-539; assay type: cell-based, human
Text: as §1

[13] = tested on: T-47D; assay: NCI-60 growth inhibition, T-47D; assay type: cell-based, human; details: Breast Cancer T-47D, 48 h
Text: as §1

[14] = tested on: SNB-75; assay: NCI-60 growth inhibition, SNB-75; assay type: cell-based, human
Text: as §1

[15] = tested on: SK-MEL-5; assay: NCI-60 growth inhibition, SK-MEL-5; assay type: cell-based, human
Text: as §1

[16] = tested on: K-562; assay: NCI-60 growth inhibition, K-562; assay type: cell-based, human
Text: as §1

[17] = tested on: PARP1; assay: Western blot of PARP1 in MCF7 cells; assay type: cell-based, human; details: 48 h; for expression level of PARP1: compared to vehicle-treated cells; for level of cleavage of PARP1: compared to vehicle-treated controls
Experimental: as §2, §3, §4

[18] = tested on: CCRF-CEM; assay: NCI-60 growth inhibition, CCRF-CEM; assay type: cell-based, human; details: Leukemia CCRF-CEM, 48 h
Text: as §1

[19] = tested on: NCI-H522; assay: NCI-60 growth inhibition, NCI-H522; assay type: cell-based, human
Text: as §1

[20] = tested on: MCF7; assay: NCI-60 growth inhibition, MCF7; assay type: cell-based, human
Text: as §1

[21] = tested on: RXF 393; assay: NCI-60 growth inhibition, RXF 393; assay type: cell-based, human
Text: as §1

[22] = tested on: DU-145; assay: NCI-60 growth inhibition, DU-145; assay type: cell-based, human
Text: as §1

[23] = tested on: HCC-2998; assay: NCI-60 growth inhibition, HCC-2998; assay type: cell-based, human
Text: as §1

[24] = tested on: 60 human cancer cell lines; assay: NCI-60 cellular antitumor activity profiling, panel summary; assay type: cell-based; details: 48 h; for inhibition at 50 µM: Homo sapiens
Text: as §1

CC1(C)OB(c2ccc(Cn3cc(F)c(=O)[nH]c3=O)cc2)OC1(C)C [Compound 1a, 5-Fluoro-1-(4-(4,4,5,5-tetramethyl-1,3,2-dioxaborolan-2-yl)benzyl)pyrimidine-2,4(1H,3H)-dione]
inhibition at 50 µM ([1]; Homo sapiens, Renal Cancer CAKI-1, 48 h): 25%
inhibition at 50 µM ([2]; Homo sapiens): 6%
inhibition at 50 µM ([3]; Homo sapiens, Renal Cancer A498, 48 h): 74%
inhibition at 50 µM ([4]; Homo sapiens, Non-Small Cell lung Cancer HOP-92, 48 h): 67%
inhibition at 50 µM ([5]; Homo sapiens): 63%
inhibition at 50 µM ([6]; Homo sapiens): 28%
inhibition at 50 µM ([7]; Homo sapiens): 60%
expression level of caspase 3 [8]: significantly reduced
level of cleavage of caspase 3 [8]: increased
inhibition at 50 µM ([9]; Homo sapiens): 24%
inhibition at 50 µM ([10]; Homo sapiens, Non-Small Cell lung Cancer NCI-H226, 48 h): 36%
inhibition at 50 µM ([11]; Homo sapiens, Colon Cancer COLO 205, 48 h): 64%
inhibition at 50 µM ([12]; Homo sapiens, CNS Cancer SF-539, 48 h): 39%
inhibition at 50 µM ([13]; Homo sapiens, T47D): 51%
inhibition at 50 µM ([14]; Homo sapiens, CNS Cancer SNB-75, 48 h): 62%
inhibition at 50 µM ([15]; Homo sapiens, Melanoma SK-MEL-5, 48 h): 61%
inhibition at 50 µM ([16]; Homo sapiens, K562, Leukemia K-562, 48 h): 70%
expression level of PARP1 [17]: significantly reduced
level of cleavage of PARP1 [17]: increased
inhibition at 50 µM ([18]; Homo sapiens): 62%
inhibition at 50 µM ([19]; Homo sapiens, Non-Small Cell lung Cancer NCI-H522, 48 h): 90%
inhibition at 50 µM ([20]; Homo sapiens, Breast Cancer MCF7, 48 h): 81%
inhibition at 50 µM ([21]; Homo sapiens, Renal Cancer RXF 393, 48 h): 40%
inhibition at 50 µM ([22]; Homo sapiens, Prostate Cancer DU-145, 48 h): 16%
inhibition at 50 µM ([23]; Homo sapiens, Colon Cancer HCC-2998, 48 h): 26%
inhibition at 50 µM ([24]; lung cancer NCI-H522, melanoma MDA-MB-435, ovarian cancer OVCAR-3, breast cancer MCF7 and MDA-MB-468 cells, read-out: most significant inhibition): 81 to 96%
inhibition at 50 µM ([24]; most cell lines of the NCI-60 panel, read-out: growth inhibition for most tested cell lines): > 50%

O=c1[nH]c(=O)n(Cc2ccc(B(O)O)cc2)cc1F [Compound 1b, (4-((5-Fluoro-2,4-dioxo-3,4-dihydropyrimidin-I(2H)-yl)methyl)phenyl)boronic acid]
Growth Inhibition (%) ([1]; Renal Cancer CAKI-1, 50 μM, 48 h): 12%
Growth Inhibition (%) ([2]; 50 μM): 0%
Growth Inhibition (%) ([3]; Renal Cancer A498, 50 μM, 48 h): 31%
Growth Inhibition (%) ([4]; Non-Small Cell lung Cancer HOP-92, 50 μM, 48 h): 35%
Growth Inhibition (%) ([5]; 50 μM): 26%
Growth Inhibition (%) ([6]; 50 μM): 16%
Growth Inhibition (%) ([7]; 50 μM): 16%
expression level of caspase 3 [8]: significantly reduced
level of cleavage of caspase 3 [8]: increased
Growth Inhibition (%) ([9]; 50 μM): 4%
Growth Inhibition (%) ([10]; Non-Small Cell lung Cancer NCI-H226, 50 μM, 48 h): 19%
Growth Inhibition (%) ([11]; Colon Cancer COLO 205, 50 μM, 48 h): 8%
Growth Inhibition (%) ([12]; CNS Cancer SF-539, 50 μM, 48 h): 13%
Growth Inhibition (%) ([13]; 50 μM): 5%
Growth Inhibition (%) ([14]; CNS Cancer SNB-75, 50 μM, 48 h): 15%
Growth Inhibition (%) ([15]; Melanoma SK-MEL-5, 50 μM, 48 h): 10%
Growth Inhibition (%) ([16]; Leukemia K-562, 50 μM, 48 h): 18%
expression level of PARP1 [17]: significantly reduced
level of cleavage of PARP1 [17]: increased
Growth Inhibition (%) ([18]; 50 μM): 7%
Growth Inhibition (%) ([19]; Non-Small Cell lung Cancer NCI-H522, 50 μM, 48 h): 44%
Growth Inhibition (%) ([20]; Breast Cancer MCF7, 50 μM, 48 h): 33%
Growth Inhibition (%) ([21]; Renal Cancer RXF 393, 50 μM, 48 h): 17%
Growth Inhibition (%) ([22]; Prostate Cancer DU-145, 50 μM, 48 h): −6%
Growth Inhibition (%) ([23]; Colon Cancer HCC-2998, 50 μM, 48 h): 5%
growth inhibition for most tested cell lines ([24]; most cell lines of the NCI-60 panel, 50 μM): less than 50%
